Type in all cases: functional
Holding throughout (details): route intraperitoneal

The test system of test [1] is Mus musculus. The test is described as follows: Antiparkinsonian activity against haloperidol-induced catalepsy in Mus musculus Swiss albino (mouse) assessed as decrease in mean descent time at 100 mg/kg, ip administered 30 min prior to haloperidol injection measured after 120 min.
The subject of test [2] is Mus musculus. In words: Antiparkinsonian activity against haloperidol-induced catalepsy in Mus musculus Swiss albino (mouse) assessed as decrease in mean descent time at 100 mg/kg, ip administered 30 min prior to haloperidol injection measured after 180 min.
Test [3] has as its system Mus musculus. In words: Antiparkinsonian activity against haloperidol-induced catalepsy in Mus musculus Swiss albino (mouse) assessed as decrease in mean descent time at 100 mg/kg, ip administered 30 min prior to haloperidol injection measured after 30 min.
Test [4] concerns Mus musculus. In words: Antiparkinsonian activity against haloperidol-induced catalepsy in Mus musculus Swiss albino (mouse) assessed as decrease in mean descent time at 100 mg/kg, ip administered 30 min prior to haloperidol injection measured after 150 min.
Test [5] has as its system Mus musculus. In words: Antiparkinsonian activity against haloperidol-induced catalepsy in Mus musculus Swiss albino (mouse) assessed reduction in catalepsy at 100 mg/kg, ip administered 30 min prior to haloperidol injection measured after 30 to 180 min. Also noted: scale not given: the % may be the effect or the level left.
For test [6], the system named is Mus musculus. In words: Antiparkinsonian activity against haloperidol-induced catalepsy in Mus musculus Swiss albino (mouse) assessed as decrease in mean descent time at 100 mg/kg, ip administered 30 min prior to haloperidol injection measured after 60 min.
The subject of test [7] is Mus musculus. The test is described as follows: Antiparkinsonian activity against haloperidol-induced catalepsy in Mus musculus Swiss albino (mouse) assessed as decrease in mean descent time at 100 mg/kg, ip administered 30 min prior to haloperidol injection measured after 90 min.
In test [8] the test system is Mus musculus. The test is described as follows: Antiparkinsonian activity against haloperidol-induced oxidative stress in Mus musculus Swiss albino (mouse) assessed reduction in lipid peroxidation in brain by measuring malondialdehyde level at 100 mg/kg, ip administered 30 min prior to haloperidol injection by TBARS assay.
The test system of test [9] is Mus musculus. In words: Antiparkinsonian activity against haloperidol-induced oxidative stress in Mus musculus Swiss albino (mouse) assessed reduction in superoxide dismutase activity in brain by measuring malondialdehyde level at 100 mg/kg, ip administered 30 min prior to haloperidol injection by NBT reduction assay.
In test [10] the test system is Mus musculus. The test is described as follows: Antiparkinsonian activity against haloperidol-induced oxidative stress in Mus musculus Swiss albino (mouse) assessed reduction in glutathione peroxidase activity in brain by measuring malondialdehyde level at 100 mg/kg, ip administered 30 min prior to haloperidol injection.
In test [11] the test system is Mus musculus. In words: Antiparkinsonian activity against haloperidol-induced oxidative stress in Mus musculus Swiss albino (mouse) assessed reduction in glutathione level in brain by measuring malondialdehyde level at 100 mg/kg, ip administered 30 min prior to haloperidol injection.

With `COc1cc(NC(=O)Nc2nc3ccccc3s2)cc(OC)c1OC`, the Time in the test with Mus musculus [1] is 89 s; in the test on Mus musculus [2] it was 122 s; in the test with Mus musculus [3] it was 37 s; in the test on Mus musculus [4], 115 s; with Mus musculus [6], 46 s; in the test on Mus musculus [7] it was 81 s. In the test with Mus musculus [5], this molecule registered an Activity of 70.1%.
For `O=C(Nc1cccc(Cl)c1)Nc1nc2ccccc2s1`, the Time in the test with Mus musculus [1] is listed as 182 s; in the test with Mus musculus [2], 230 s; with Mus musculus [3], 101 s; in the test with Mus musculus [4], 191 s; in the test with Mus musculus [6] it was 144 s; in the test with Mus musculus [7], 169 s. In the test with Mus musculus [5], this molecule yielded an Activity of 35.6%.
With `O=C(Nc1nc2ccccc2s1)Nc1ccccc1Br`, the Time turned out to be 173 s in the test on Mus musculus [1]; 224 s with Mus musculus [2]; 118 s in the test on Mus musculus [3]; 201 s in the test on Mus musculus [4]; 128 s in the test on Mus musculus [6]; 156 s in the test with Mus musculus [7]. In addition, in the test on Mus musculus [5], the Activity is listed as 36.7%.
As for `O=C(Nc1nc2ccccc2s1)Nc1cc(C(F)(F)F)ccc1Cl`, the Time in the test on Mus musculus [1] was 118 s; with Mus musculus [2], 173 s; in the test on Mus musculus [3], 77 s; with Mus musculus [4] it was 129 s; in the test on Mus musculus [6] it was 89 s; in the test on Mus musculus [7], 114 s. Further, the Activity in the test with Mus musculus [5] is 56.3%.
Take `COc1ccccc1NC(=O)Nc1nc2ccccc2s1`: the Time in the test on Mus musculus [1] is reported as 72 s; with Mus musculus [2] it was 103 s; in the test with Mus musculus [3] it was 32 s; in the test with Mus musculus [4] it was 95 s; with Mus musculus [6], 34 s; in the test with Mus musculus [7], 65 s. For the same molecule, the Activity came to 2.99 nmol/mg in the test on Mus musculus [8]; 2.12 U/mg in the test with Mus musculus [9]; 75.9% with Mus musculus [5]; 1.65 U/g in the test on Mus musculus [10]; 12.34 µg/g in the test with Mus musculus [11].
Regarding `O=C(CCCN1CCC(O)(c2ccc(Cl)cc2)CC1)c1ccc(F)cc1` [HALOPERIDOL], the Time was found to be 300 s in the test with Mus musculus [1]; 300 s in the test on Mus musculus [2]; 155 s in the test with Mus musculus [3]; 300 s with Mus musculus [4]; 242 s in the test with Mus musculus [6]; 264 s in the test with Mus musculus [7]. Further, the Activity came out at 4.92 nmol/mg in the test on Mus musculus [8], 0.85 U/mg in the test with Mus musculus [9], 0.68 U/g in the test with Mus musculus [10] and 5.57 µg/g in the test with Mus musculus [11].
`N[C@@H](Cc1ccc(O)c(O)c1)C(=O)O` [LEVODOPA]: the Time with Mus musculus [1] came to 119 s; with Mus musculus [2] it was 137 s; in the test on Mus musculus [3], 32 s; in the test on Mus musculus [4], 122 s; in the test on Mus musculus [6], 49 s; in the test with Mus musculus [7], 99 s. Moreover, the Activity in the test on Mus musculus [5] is reported as 65.6%.
As to `O=C(Nc1nc2ccccc2s1)Nc1ccccc1F`, the Time in the test on Mus musculus [1] worked out at 207 s; in the test on Mus musculus [2], 241 s; in the test on Mus musculus [3] it was 81 s; in the test on Mus musculus [4], 223 s; in the test with Mus musculus [6], 145 s; in the test with Mus musculus [7], 193 s. Also, the Activity in the test with Mus musculus [5] is listed as 30.8%.
For the molecule `O=C(Nc1ccc(Br)cc1)Nc1nc2ccccc2s1`, the Time stood at 196 s in the test on Mus musculus [1]; 216 s in the test on Mus musculus [2]; 87 s in the test on Mus musculus [3]; 211 s in the test on Mus musculus [4]; 132 s in the test with Mus musculus [6]; 178 s in the test with Mus musculus [7]. In the test with Mus musculus [5], this molecule registered an Activity of 35.4%.
`O=C(Nc1nc2ccccc2s1)Nc1ccccc1Cl`: the Time is listed as 205 s in the test on Mus musculus [1]; 289 s in the test with Mus musculus [2]; 57 s in the test with Mus musculus [3]; 212 s in the test with Mus musculus [4]; 98 s with Mus musculus [6]; 134 s in the test on Mus musculus [7]. This molecule also returned an Activity in the test with Mus musculus [5] of 37.1%.
In the case of `O=C(Nc1nc2ccccc2s1)Nc1ccccc1[N+](=O)[O-]`, the Time is 85 s with Mus musculus [1]; 130 s with Mus musculus [2]; 23 s with Mus musculus [3]; 99 s in the test with Mus musculus [4]; 56 s with Mus musculus [6]; 77 s with Mus musculus [7]. In the test on Mus musculus [5], this molecule came in with an Activity of 71.4%.
Consider `O=C(Nc1ccc(Oc2ccccc2)cc1)Nc1nc2ccccc2s1`, for which the Time in the test on Mus musculus [1] was determined as 161 s; in the test with Mus musculus [2], 196 s; in the test on Mus musculus [3], 51 s; in the test on Mus musculus [4], 189 s; in the test on Mus musculus [6] it was 67 s; in the test on Mus musculus [7], 126 s. In addition, in the test with Mus musculus [5], the Activity is 50.5%.
With `Nc1nc2c(cnn2CCc2ccccc2)c2nc(-c3ccco3)nn12` [SCH-58261], the Time worked out at 45 s in the test with Mus musculus [1]; 72 s with Mus musculus [2]; 11 s in the test on Mus musculus [3]; 58 s in the test with Mus musculus [4]; 19 s in the test with Mus musculus [6]; 36 s in the test on Mus musculus [7]. In the test with Mus musculus [5], this molecule yielded an Activity of 86.4%.
With `O=C(NCc1ccco1)Nc1nc2ccccc2s1`, the Time in the test on Mus musculus [1] is reported as 81 s; in the test on Mus musculus [2] it was 95 s; in the test on Mus musculus [3] it was 18 s; with Mus musculus [4], 85 s; in the test with Mus musculus [6] it was 29 s; with Mus musculus [7], 72 s. Besides, the Activity in the test with Mus musculus [8] amounted to 3.12 nmol/mg; in the test with Mus musculus [9], 1.87 U/mg; with Mus musculus [5], 77.3%; in the test with Mus musculus [10], 1.36 U/g; with Mus musculus [11], 16.53 µg/g.
As for `Cc1ccccc1NC(=O)Nc1nc2ccccc2s1`, the Time was 166 s with Mus musculus [1]; 198 s in the test with Mus musculus [2]; 66 s in the test with Mus musculus [3]; 180 s in the test with Mus musculus [4]; 101 s in the test with Mus musculus [6]; 134 s with Mus musculus [7]. This molecule displayed an Activity in the test on Mus musculus [5] of 46.9%.
Take `O=C(Nc1ccc(Cl)cc1)Nc1nc2ccccc2s1`: the Time with Mus musculus [1] was 190 s; in the test with Mus musculus [2], 220 s; in the test on Mus musculus [3] it was 78 s; in the test with Mus musculus [4] it was 207 s; in the test with Mus musculus [6], 129 s; in the test on Mus musculus [7], 166 s. This molecule also gave an Activity in the test with Mus musculus [5] of 37.4%.
`COc1ccc(NC(=O)Nc2nc3ccccc3s2)c(OC)c1`: the Time was determined as 94 s in the test with Mus musculus [1]; 149 s with Mus musculus [2]; 26 s in the test with Mus musculus [3]; 107 s in the test with Mus musculus [4]; 41 s with Mus musculus [6]; 78 s with Mus musculus [7]. The molecule also came in with an Activity with Mus musculus [5] of 69.8%.
In the case of `O=C(Nc1ccc([N+](=O)[O-])cc1)Nc1nc2ccccc2s1`, the Time was 199 s in the test on Mus musculus [1]; 253 s in the test on Mus musculus [2]; 90 s in the test on Mus musculus [3]; 234 s in the test on Mus musculus [4]; 138 s with Mus musculus [6]; 181 s in the test on Mus musculus [7]. The same molecule had an Activity in the test with Mus musculus [5] of 30.5%.
For `O=C(Nc1ccc(F)cc1)Nc1nc2ccccc2s1`, the Time was 219 s in the test with Mus musculus [1]; 263 s with Mus musculus [2]; 70 s with Mus musculus [3]; 234 s in the test on Mus musculus [4]; 131 s in the test on Mus musculus [6]; 188 s in the test on Mus musculus [7]. For the same molecule, the Activity in the test with Mus musculus [5] is reported as 29.8%.
Consider `COc1ccc(NC(=O)Nc2nc3ccccc3s2)cc1`, for which the Time worked out at 160 s with Mus musculus [1]; 181 s in the test on Mus musculus [2]; 43 s in the test with Mus musculus [3]; 180 s with Mus musculus [4]; 69 s with Mus musculus [6]; 117 s in the test on Mus musculus [7]. In addition, the Activity in the test on Mus musculus [5] is recorded as 53.1%.
In the case of `Cc1ccc(NC(=O)Nc2nc3ccccc3s2)cc1`, the Time with Mus musculus [1] came to 160 s; in the test on Mus musculus [2], 185 s; in the test with Mus musculus [3], 72 s; in the test with Mus musculus [4], 171 s; in the test on Mus musculus [6] it was 97 s; in the test with Mus musculus [7] it was 155 s. The same molecule returned an Activity with Mus musculus [5] of 47.2%.

These data come from ChEMBL document CHEMBL3044751, “Structure-based design, synthesis, and molecular modeling studies of 1-(benzo[d]thiazol-2-yl)-3-(substituted aryl)urea derivatives as novel anti-Parkinsonian agents” (2012).
